In US20240390383A1, “DIOXAZINES AND THEIR USE IN TREATMENT OF GBA-RELATED DISEASES” (ZEVRA DENMARK A/S, priority 2021, published 2024):
Marks after values point to notes of the source that are not given here.

Target: T1, GCase (GBA) in human fibroblast cell line GM10915 harboring the L444P GBA mutation (Homo sapiens, UniProt P04062, L483P)
T1 construct: Human fibroblast cell line GM10915 harboring the L444P GBA mutation; host or cells: GM10915 human fibroblasts
T1 sequence (P04062 40-536 L483P): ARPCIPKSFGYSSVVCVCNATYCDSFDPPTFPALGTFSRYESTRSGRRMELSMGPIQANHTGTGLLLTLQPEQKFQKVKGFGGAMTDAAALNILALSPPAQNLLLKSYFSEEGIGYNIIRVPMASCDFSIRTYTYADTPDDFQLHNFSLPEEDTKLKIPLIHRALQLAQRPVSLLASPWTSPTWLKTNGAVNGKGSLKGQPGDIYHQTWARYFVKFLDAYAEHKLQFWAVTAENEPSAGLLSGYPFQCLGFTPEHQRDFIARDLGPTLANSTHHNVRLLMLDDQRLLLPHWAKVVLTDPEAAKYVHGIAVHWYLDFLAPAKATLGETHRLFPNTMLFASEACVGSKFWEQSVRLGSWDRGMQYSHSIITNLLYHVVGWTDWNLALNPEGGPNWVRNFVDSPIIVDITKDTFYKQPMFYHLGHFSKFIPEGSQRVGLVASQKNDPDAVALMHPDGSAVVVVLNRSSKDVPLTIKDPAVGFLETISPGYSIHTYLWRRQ
Assay: GCase activity assay (4-MUG substrate, normalised to crystal violet staining) in L444P GBA fibroblasts
Format: cell-based
Conditions: 5 days exposure; for GBA EC1.5: concentration giving 150% GCase activity (1.5-fold induction), 8-point dose range
Protocol: Human fibroblast cell line GM10915 harboring the L444P GBA mutation was obtained from Coriell Biorepositories.
All chemicals (Glacial acetic acid, Glycine, 4-Methylumbelliferyl b-D-glucopyranoside (4-MUG), Sodium acetate trihydrate, Sodium hydroxide, Crystal violet, SDS, Ammonium hydroxide) were obtained from Sigma-Aldrich (Denmark) Compounds tested for GCase activity were dissolved in H2O or DMSO.
The GM10915 cell line was cultured under standard cell culture conditions (37° C. and 5% CO2) in complete DMEM medium supplemented with nonessential amino acids (NEAA), 1% Pen-Strep and 12% FCS. Cells were seeded at a density of 10^4 cells/well in 100 μL complete medium in one black 96-well plate for glucosylceramidase (GCase) activity measurement and in one clear 96-well plate for crystal violet staining to correct for cell density. Crystal violet staining is performed to obtain quantitative information about the relative density of cells adhering to multi-wells plates.
The assay was adapted from Sawkar et al (2002) and briefly described in the following. The day after seeding of cells, the medium was replaced with fresh medium containing the compounds to be tested. Compounds were tested in duplicate and in an 8-point diluted dose range to obtain a dose response. Cells were exposed with compounds for five days. Fresh compound was added every 2-3 days. PBS was included to define the basal level of GCase activity.
Cells were washed three times with 200 μL PBS per well and 50 μL of 2.5 mM 4-MUG buffer (4-MUG dissolved in 0.2 M acetate buffer pH 4.0) was added and the cells were incubated at 37° C., 5% CO2 for 23 hours. The reaction was stopped by adding 150 μL 0.2 M glycine buffer (pH 10.8). Fluorescence was measured with a Varioskan® Flash reader (Thermo Scientific) at an excitation/emission setting of 365/445 nm.
Cells were treated with compounds in a parallel setup identical to the setup to test for GCase activity. At the end of compound treatment, cells were washed once with 200 μL PBS per well and 50 μL 0.1% w/v crystal violet (in H2O) was added. Following 10 min. of incubation, the crystal violet solution was removed, and the cells were washed three times with 200 μL PBS and 100 μL 1% SDS was added to solubilize the stain. The plate was agitated on an orbital shaker for 10-30 min. Absorbance (A) is measured at […] using a Varioskan® Flash reader (Thermo Scientific).
The fluorescence signal (F) derived from the GCase measurement is normalized to the absorbance signal (A) derived from the crystal violet staining. The percent GCase activity resulting from compound treatment is calculated relative to the basal activity obtained from untreated cells.
Maximal effect of compounds (Emax) is determined from the dose response effects as the maximum “Percent GCase activity” achieved in the dose range tested.

[1] = maximum percent GCase activity relative to untreated cells in the dose range tested

Row | SMILES | GBA EC1.5 | Emax [1] [%] | GBA Emax [1] [%]
1 | C1CCN(CC2CON=C(C3CN4CCC3CC4)O2)CC1 (racemic) [compound 644, rac-5-(piperidin-1-ylmethyl)-3-(quinuclidin-3-yl)-5,6-dihydro-1,4,2-dioxazine] | 5 µM | 264 | –
2 | C1CCN(CC2CON=C(C3(C4CCOCC4)CCNC3)O2)CC1 (racemic) [compound 583, rac-5-(piperidin-1-ylmethyl)-3-(3-(tetrahydro-2H-pyran-4-yl)pyrrolidin-3-yl)-5,6-dihydro-1,4,2-dioxazine] | 14 µM | 188 | –
3 | CN1CC2(C)CN(CC3CON=C(C4(C)CCNCC4)O3)CC2(C)C1 (centres unmarked) [compound 628] | 43 µM | 136 | –
4 | CC1(C2=NOCC(CN3CCCCC3)O2)CCCN1 (racemic) [compound 566, rac-3-(2-methylpyrrolidin-2-yl)-5-(piperidin-1-ylmethyl)-5,6-dihydro-1,4,2-dioxazine] | 36 µM | 164 | –
5 | CC1(C2=NOCC(CN3CCCCC3)O2)CCNC1 (racemic) [compound 465, rac-3-(3-methylpyrrolidin-3-yl)-5-(piperidin-1-ylmethyl)-5,6-dihydro-1,4,2-dioxazine] | 10 µM | 283 | –
6 | C[C@@]12CNC[C@]1(C1=NOCC(CN3CCCCC3)O1)C2 (relative stereo) [compound 481, rac-rel-trans-3-((1R,5R)-5-methyl-3-azabicyclo[3.1.0]hexan-1-yl)-5-(piperidin-1-ylmethyl)-5,6-dihydro-1,4,2-dioxazine] | 22 µM | 174 | –
7 | CC1(C2=NOC[C@@H](CN3CCCCC3)O2)CCNCC1 [compound 886] | 7 µM | – | 203
8 | CC(C)(C1=NOCC(CN2CCCCC2)O1)C1CCCNC1 (racemic) [compound 473, rac-5-(piperidin-1-ylmethyl)-3-(2-(piperidin-3-yl)propan-2-yl)-5,6-dihydro-1,4,2-dioxazine di-2,2,2-trifluoroacetate] | 9 µM | 181 | –
9 | CN1CCC(C2=NOCC(C)(CN3CCCCC3)O2)CC1 (centres unmarked) [compound 870] | 6 µM | 217 | –
10 | C[C@@H]1CNC[C@@]1(C)C1=NOCC(CN2CCCCC2)O1 (relative stereo) [compound 489, rac-rel-cis-3-((3R,4R)-3,4-dimethylpyrrolidin-3-yl)-5-(piperidin-1-ylmethyl)-5,6-dihydro-1,4,2-dioxazine] | 29 µM | 242 | –
11 | Nc1c(Br)cc(Br)cc1CN[C@H]1CC[C@H](O)CC1 [Ambroxol, reference compound] | >20* *The 1.5-fold induction criteria was not reached within the tested concentration range μM | – | –
12 | COCC1(C2=NOCC(CN3CCCCC3)O2)CCNC1 (racemic) [compound 594, rac-3-(3-(methoxymethyl)pyrrolidin-3-yl)-5-(piperidin-1-ylmethyl)-5,6-dihydro-1,4,2-dioxazine] | 49 µM | 152 | –
13 | CN(C)CC1CON=C(C2CCNC2)O1 (centres unmarked) [compound 615] | 50 µM | 108 | –
14 | C[C@]1(C2=NOC[C@H](CN3CCCCC3)O2)CCCNC1 [compound 881] | 5 µM | 219 | –
15 | COc1ncc(CC2(C3=NOC(C)C(CN4CCCCC4)O3)CCN(C)C2)cc1Cl (centres unmarked) [compound 646] | 50 µM | 112 | –
16 | CN1CCCC(C)(C2=NOCC(CN3CCCCC3)O2)C1 (racemic) [compound 529, rac-3-(1,3-dimethylpiperidin-3-yl)-5-(piperidin-1-ylmethyl)-5,6-dihydro-1,4,2-dioxazine] | 11 µM | 222 | –
17 | OCC1(C2=NOCC(CN3CCCCC3)O2)CCNCC1 (racemic) [compound 722, rac-(4-(5-(piperidin-1-ylmethyl)-5,6-dihydro-1,4,2-dioxazin-3-yl)piperidin-4-yl)methanol] | 26 µM | 153 | –
18 | C[C@@H]1ON=C(C2(C)CCNCC2)O[C@H]1CN1CCCCC1 [compound 887] | 5 µM | 233 | –
19 | C1CCN(CC2CON=C([C@]34CNC[C@H]3COC4)O2)CC1 (relative stereo) [compound 494, rac-rel-trans-(3aR,6aR)-3a-(5-(piperidin-1-ylmethyl)-5,6-dihydro-1,4,2-dioxazin-3-yl)hexahydro-1H-furo[3,4-c]pyrrole] | 18 µM | 307 | –
20 | Cc1cncc(CC2(C3=NOCC(CN4CCCCC4)O3)CCNCC2)c1 (centres unmarked) [compound 520] | 13 µM | 136 | –
21 | Cn1cnc(CC2(C3=NOCC(CN4CCCCC4)O3)CCNCC2)c1 (centres unmarked) [compound 582] | 50 µM | 114 | –
22 | COc1cc(C)c(CC2(C3=NOCC(CN4CCCCC4)O3)CCNCC2)cn1 (centres unmarked) [compound 702] | 50 µM | 110 | –

The remaining lines, values ahead:

Row | GBA EC1.5 | Emax [1] [%] | GBA Emax [1] [%] | SMILES
23 | 50 µM | 138 | – | c1nc2n(n1)CCC(C1=NOCC(CN3CCCCC3)O1)C2 (centres unmarked) [compound 662]
24 | 11 µM | 271 | – | C1CCN(CC2CON=C(CC3CCCNC3)O2)CC1 (racemic) [compound 554, rac-5-(piperidin-1-ylmethyl)-3-(piperidin-3-ylmethyl)-5,6-dihydro-1,4,2-dioxazine]
25 | 50 µM | 107 | – | NC(=O)N1CCC(C2=NOCC(CN3CCCCC3)O2)C1 (centres unmarked) [compound 697]
26 | 8 µM | 244 | – | CC1CC(C2=NOCC(CN3CCCCC3)O2)CN1 (racemic) [compound 560, rac-3-(5-methylpyrrolidin-3-yl)-5-(piperidin-1-ylmethyl)-5,6-dihydro-1,4,2-dioxazine]
27 | 50 µM | 109 | – | CN(C)C(=O)N1CCC(C2=NOCC(CN3CCCCC3)O2)CC1 (centres unmarked) [compound 684]
28 | 50 µM | 126 | – | FC1(F)CNCCC1C1=NOCC(CN2CCCCC2)O1 (centres unmarked) [compound 636]
29 | 4 µM | 180 | – | c1sc(C2CCCNC2)nc1C1=NOCC(CN2CCCCC2)O1 (centres unmarked) [compound 876]
30 | 50 µM | 123 | – | c1cc2n(n1)CCC(C1=NOCC(CN3CCCCC3)O1)C2 (centres unmarked) [compound 656]
31 | 50 µM | 137 | – | COC1CC(C2=NOCC(CN3CCCCC3)O2)CN(C)C1 (centres unmarked) [compound 689]
32 | 50 µM | 126 | – | CN(C)C(=O)N1CCCC(C2=NOCC(CN3CCCCC3)O2)C1 (centres unmarked) [compound 670]
33 | 50 µM | 114 | – | F[C@H]1CN[C@H](C2=NOCC(CN3CCCCC3)O2)C1 (some centres unmarked) [compound 556]
34 | 38 µM | 203 | – | NCC(=O)N1CCC(C2=NOCC(CN3CCCCC3)O2)C1 (racemic) [compound 699, rac-2-amino-1-(3-(5-(piperidin-1-ylmethyl)-5,6-dihydro-1,4,2-dioxazin-3-yl)pyrrolidin-1-yl)ethan-1-one]
35 | 16 µM | 213 | – | COC1CN(C(C)C)CCC1C1=NOCC(CN2CCCCC2)O1 (racemic) [compound 714, rac-3-(1-isopropyl-3-methoxypiperidin-4-yl)-5-(piperidin-1-ylmethyl)-5,6-dihydro-1,4,2-dioxazine]
36 | 50 µM | 107 | – | Nc1ccc(N2CCC(C3=NOCC(CN4CCCCC4)O3)CC2)nc1 (centres unmarked) [compound 679]
